These results are taken from patent publication US20030125363A1, “Riluzole and alpha-tocopherol combination” (priority 1998, published 2003).

The test deals with patients suffering from ALS.
The mark [1] stands for this setting: after 12 months of treatment, Munsat functional states.

Experimental: The study was carried out in 289 patients in total aged over 18 years, who have been suffering from ALS for less than 5 years and in whom the vital capacity/theoretical normal vital capacity ratio is greater than or equal to 60% (the vital capacity is a routine conventional measurement of the respiratory function also called lung function test).
The patients are divided into 2 groups:
group 1: 145 patients treated with 100 mg/day of riluzole by the oral route and 1000 mg/day of α-tocopherol by the oral route,
group 2: 144 patients treated with 100 mg/day of riluzole by the oral route and placebo.
The patients are monitored for a year. The results are measured on functional scales (Munsat's functional states (RIVIERE et al., Arch. Neurol., 55, 526 (1998)), a visual analog scale (VAS) for fatigability (LACOBLEZ et al., The Lancet, 347, 1425 (1996); BENSIMON et al., New England Journal of Medicine, 330, 585 (1994)) and plasma concentration of malondialdehyde, a biochemical marker for oxidative stress (FAVIER, Analysis of free radicals in biological systems, Birk Hauser, Basel/Switzerland, 1995 p. 100-117).
The Munsat functional state A relates to patients in an average or mild state:
average state: average deficiency in 3 regions (speech, arm and leg), functionally independent in speech, activities of the upper extremities in daily and ambulatory life,
mild state: average deficiency in 3 regions or mild to severe deficiency in one region while the other two regions are normal or slightly affected.
The Munsat functional state B relates to patients in the severe or final state:
severe state: need for assistance in 2 or 3 regions, dysarthric speech and/or patients requiring assistance to walk and/or requiring assistance for the activities of the upper extremities in daily life,
final state: nonfunctional use of at least 2 regions and mild or nonfunctional use of the third region.
The progression of the functional states A and B is determined at the time of inclusion (M0) and after 12 months of treatment (M12).

As for `Nc1nc2ccc(OC(F)(F)F)cc2s1` [RILUZOLE AND PLACEBO, 2-amino-6-trifluoromethoxybenzothiazole], for the setting “Munsat functional state A (average or mild), after 12 months of treatment, riluzole 100 mg/day oral, α-tocopherol 1000 mg/day oral or placebo”, the “Condition after treatment (M12): state A” value is 56 number of patients. Further, the “Condition on inclusion (M0): state A” value (Munsat functional state A (average or mild), baseline at inclusion M0, oral treatment) is reported as 109 number of patients. In addition, the “Condition after treatment (M12): state B” value (Munsat functional state B (severe or final), after 12 months of treatment, riluzole 100 mg/day oral, α-tocopherol 1000 mg/day oral or placebo) is listed as 63 number of patients. The “Condition on inclusion (M0): state B” value (Munsat functional state B (severe or final), baseline at inclusion M0, oral treatment) is given as 10 number of patients. Also, under setting [1], the “patients who did not exhibit any change” value is listed as 66 patients, the “patients who did not exhibit any change (percent)” value is 55.3%, the “patients who exhibited a worsening of the disease” value stood at 53 patients and the “patients who exhibited a worsening of the disease (percent)” value is reported as 44.5%.
